Experimental data published in ChEMBL document CHEMBL5500407, “Designing Chromane Derivatives as α2A-Adrenoceptor Selective Agonists via Conformation Constraint” (J Med Chem, 2024).
Activity calls are given as the source filed them. No cut-off for these calls is given here.

How the values were obtained:
[1] = target: T1, Alpha-2A adrenergic receptor (Homo sapiens, UniProt P08913)
T1 sequence (P08913 whole entry): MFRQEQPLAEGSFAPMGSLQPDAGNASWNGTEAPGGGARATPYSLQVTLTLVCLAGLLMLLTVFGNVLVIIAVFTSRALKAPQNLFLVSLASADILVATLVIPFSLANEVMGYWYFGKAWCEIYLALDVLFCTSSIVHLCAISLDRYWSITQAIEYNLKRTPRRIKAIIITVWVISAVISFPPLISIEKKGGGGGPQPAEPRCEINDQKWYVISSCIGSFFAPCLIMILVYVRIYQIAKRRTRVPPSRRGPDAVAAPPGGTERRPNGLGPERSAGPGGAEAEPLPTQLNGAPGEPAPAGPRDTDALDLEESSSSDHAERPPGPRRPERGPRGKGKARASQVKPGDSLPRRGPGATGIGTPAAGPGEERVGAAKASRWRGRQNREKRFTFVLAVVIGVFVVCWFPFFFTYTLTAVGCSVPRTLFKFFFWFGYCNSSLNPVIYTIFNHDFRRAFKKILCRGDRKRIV
Description: Agonist activity at alpha2A-adrenoceptor (unknown origin) expressed in CHO-alpha2-AR-PKAcatEGFP cells assessed as intracellular cAMP concentration by measuring PKA translocation after 15 mins incubation by PKA redistribution assay

[2] = target: T1, Alpha-2A adrenergic receptor; remark: listed apart in the source
Description: Binding affinity to human alpha2A-adrenoceptor

[3] = target: T2, Alpha-1B adrenergic receptor (Homo sapiens, UniProt P35368); test: Binding affinity to human alpha1B-adrenoceptor
T2 sequence (P35368 whole entry): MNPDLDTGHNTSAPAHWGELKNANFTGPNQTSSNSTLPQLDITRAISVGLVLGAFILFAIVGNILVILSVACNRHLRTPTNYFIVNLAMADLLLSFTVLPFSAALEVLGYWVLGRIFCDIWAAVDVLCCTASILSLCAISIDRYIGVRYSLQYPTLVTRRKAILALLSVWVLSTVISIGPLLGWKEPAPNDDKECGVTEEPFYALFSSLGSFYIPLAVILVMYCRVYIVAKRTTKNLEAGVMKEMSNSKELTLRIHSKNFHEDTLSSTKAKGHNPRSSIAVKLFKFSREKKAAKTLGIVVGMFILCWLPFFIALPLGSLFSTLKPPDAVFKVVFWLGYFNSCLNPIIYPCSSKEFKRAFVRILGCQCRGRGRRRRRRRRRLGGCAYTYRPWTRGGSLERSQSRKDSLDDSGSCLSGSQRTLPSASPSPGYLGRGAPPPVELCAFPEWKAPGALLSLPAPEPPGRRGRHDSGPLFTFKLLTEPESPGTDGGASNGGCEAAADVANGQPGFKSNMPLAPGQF

[4] = target: T3, Alpha-1D adrenergic receptor (Homo sapiens, UniProt P25100); test: Binding affinity to human alpha1D-adrenoceptor
T3 sequence (P25100 whole entry): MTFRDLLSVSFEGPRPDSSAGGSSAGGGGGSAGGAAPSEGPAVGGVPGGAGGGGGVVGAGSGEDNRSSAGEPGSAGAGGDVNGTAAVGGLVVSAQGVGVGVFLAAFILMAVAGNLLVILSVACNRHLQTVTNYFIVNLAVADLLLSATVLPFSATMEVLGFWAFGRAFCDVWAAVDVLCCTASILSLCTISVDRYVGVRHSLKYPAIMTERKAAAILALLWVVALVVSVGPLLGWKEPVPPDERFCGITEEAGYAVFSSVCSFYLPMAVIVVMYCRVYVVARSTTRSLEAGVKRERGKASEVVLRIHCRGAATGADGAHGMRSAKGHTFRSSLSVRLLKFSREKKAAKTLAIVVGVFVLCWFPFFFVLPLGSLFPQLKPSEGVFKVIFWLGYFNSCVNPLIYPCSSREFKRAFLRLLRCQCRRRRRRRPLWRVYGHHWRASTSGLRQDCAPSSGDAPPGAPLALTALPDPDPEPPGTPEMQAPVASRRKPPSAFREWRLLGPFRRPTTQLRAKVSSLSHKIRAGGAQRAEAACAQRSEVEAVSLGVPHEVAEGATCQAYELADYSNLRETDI

[5] = target: T4, Alpha-2B adrenergic receptor (Homo sapiens, UniProt P18089)
T4 sequence (P18089 whole entry): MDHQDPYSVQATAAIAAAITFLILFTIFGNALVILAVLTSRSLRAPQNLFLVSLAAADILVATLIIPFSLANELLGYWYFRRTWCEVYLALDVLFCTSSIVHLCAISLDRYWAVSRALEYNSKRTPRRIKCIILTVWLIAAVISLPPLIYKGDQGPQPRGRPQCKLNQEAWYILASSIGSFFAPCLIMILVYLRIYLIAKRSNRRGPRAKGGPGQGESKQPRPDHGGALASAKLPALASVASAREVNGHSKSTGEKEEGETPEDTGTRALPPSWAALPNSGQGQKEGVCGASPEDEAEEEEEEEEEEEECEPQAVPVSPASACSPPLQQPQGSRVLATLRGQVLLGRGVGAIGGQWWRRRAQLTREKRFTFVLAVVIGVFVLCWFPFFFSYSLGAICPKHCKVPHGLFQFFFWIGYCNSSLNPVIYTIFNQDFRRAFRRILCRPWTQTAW
Description: Binding affinity to human alpha2B-adrenoceptor

[6] = target: T5, Alpha-1A adrenergic receptor (Homo sapiens, UniProt P35348)
T5 sequence (P35348 whole entry): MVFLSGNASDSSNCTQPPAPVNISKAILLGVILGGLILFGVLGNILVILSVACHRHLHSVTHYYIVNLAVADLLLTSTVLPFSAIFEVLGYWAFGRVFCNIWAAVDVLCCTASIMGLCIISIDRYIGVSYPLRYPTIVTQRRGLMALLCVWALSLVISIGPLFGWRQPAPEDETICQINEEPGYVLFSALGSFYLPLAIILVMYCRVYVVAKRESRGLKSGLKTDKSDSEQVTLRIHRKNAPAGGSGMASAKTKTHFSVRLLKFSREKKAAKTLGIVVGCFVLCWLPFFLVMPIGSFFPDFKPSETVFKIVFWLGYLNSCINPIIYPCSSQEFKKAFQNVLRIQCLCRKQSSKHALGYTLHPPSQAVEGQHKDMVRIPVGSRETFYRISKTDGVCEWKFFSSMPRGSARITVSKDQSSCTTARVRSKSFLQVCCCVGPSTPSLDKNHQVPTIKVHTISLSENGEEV
Description: Binding affinity to human alpha1A-adrenoceptor

[7] = target: T6, Alpha-2C adrenergic receptor (Homo sapiens, UniProt P18825)
T6 sequence (P18825 whole entry): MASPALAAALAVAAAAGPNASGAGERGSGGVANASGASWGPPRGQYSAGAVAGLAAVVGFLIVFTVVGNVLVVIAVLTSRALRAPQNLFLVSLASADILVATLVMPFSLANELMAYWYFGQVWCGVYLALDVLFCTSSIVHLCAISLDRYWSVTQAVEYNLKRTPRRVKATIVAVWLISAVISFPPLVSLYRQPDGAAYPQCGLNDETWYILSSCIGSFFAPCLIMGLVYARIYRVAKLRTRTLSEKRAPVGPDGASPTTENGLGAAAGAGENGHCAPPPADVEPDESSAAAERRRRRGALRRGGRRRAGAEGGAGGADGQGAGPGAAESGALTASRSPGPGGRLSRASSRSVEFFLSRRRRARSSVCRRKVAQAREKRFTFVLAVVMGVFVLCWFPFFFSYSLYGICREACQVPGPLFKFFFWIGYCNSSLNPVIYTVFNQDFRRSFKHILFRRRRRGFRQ
Description: Binding affinity to human alpha2C-adrenoceptor

Mus musculus [8] = test: Hypnotic activity in ip dosed C57BL/6 mouse assessed as increase in immobility time; type: functional, organism-based
HEK293T = test: Agonist activity at alpha2A-adrenoceptor F427A mutant (unknown origin) expressed in HEK293T cells co-expressing pGloSensor-22F cAMP plasmid assessed as at 1 to 100 uM measured after 10 mins incubation by multiplate reader; type: cell-based; conditions: Homo sapiens, dose 1-100 µM
Mus musculus [9] = test: Hypnotic activity in ip dosed C57BL/6 mouse assessed as increase in loss of righting reflex (LORR)
[10] = target: T6, Alpha-2C adrenergic receptor; test: Agonist activity at alpha2C-adrenoceptor (unknown origin) expressed in CHO-alpha2C-PKAcatEGFP cells assessed as increase in intracellular calcium level measured after 15 mins incubation by Micro automated microscopy; type: functional, cell-based
[11] = Selectivity index, ratio of EC50 for alpha2A-adrenoceptor (unknown origin) to EC50 for alpha2B-adrenoceptor (unknown origin)
[12] = target: T4, Alpha-2B adrenergic receptor; test: Agonist activity at alpha2B-adrenoceptor (unknown origin) expressed in U2OS-EGFP-NFAT2-alpha2B-AR cells assessed as increase in intracellular calcium level measured after 15 mins incubation by Micro automated microscopy; type: functional, cell-based
[13] = Selectivity index, ratio of EC50 for alpha2A-adrenoceptor (unknown origin) to EC50 for alpha2C-adrenoceptor (unknown origin)
[14] = Selectivity index, ratio of EC50 for alpha2A-adrenoceptor (unknown origin) to EC50 for alpha1A-adrenoceptor (unknown origin)
[15] = target: T5, Alpha-1A adrenergic receptor; test: Agonist activity at alpha1A-adrenoceptor (unknown origin) expressed in HEK293T cells assessed as fluorescence intensity measured after 30 mins by IP-one homogeneous time-resolved fluorescence assay; type: functional, cell-based
[16] = Metabolic stability in mouse liver microsomes assessed as elimination half life; type: ADME, Microsome
[17] = Metabolic stability in mouse liver microsomes assessed as intrinsic clearance; type: ADME, Microsome; conditions: read-out: CLH

COc1ccc2c(c1)C(c1c[nH]cn1)=CCO2
EC50 [1]: > 5000 nM

Brc1ccc2c(c1)OCC=C2c1c[nH]cn1
EC50 [1]: > 5000 nM

Clc1ccc2c(c1)C(c1c[nH]cn1)CCO2 (stereo not drawn)
EC50 [1]: 64.6 nM

Clc1cccc2c(Nc3ccncc3)cccc12
Ki [2]: 8.32 nM

Clc1cccc2c1OCC=C2c1cnc[nH]1
EC50 [1]: 12.8 nM

Clc1cccc(Cl)c1N=C1NCCN1 [CLONIDINE]
Ki [3]: 7410 nM | Ki [4]: 2570 nM

Clc1cc(Br)cc2c1OCC=C2c1c[nH]cn1
EC50 [1]: > 5000 nM

Fc1cccc2c1OCCC2c1c[nH]cn1 (stereo not drawn)
EC50 [1]: 56.9 nM

COc1cccc2c1CCOC2C1=NCCN1 (stereo not drawn) [TASIPIMIDINE]
Ki [3]: 525 nM | Ki [4]: 3090 nM | Ki [2]: 8.71 nM | Ki [5]: > 1000 nM | Ki [6]: 3090 nM | Ki [7]: > 1000 nM

Fc1cccc2c1OCC=C2c1c[nH]cn1
EC50 [1]: 77.3 nM

Cc1cccc([C@H](C)c2c[nH]cn2)c1C [DEXMEDETOMIDINE]
Activity (Mus musculus [8]): Dose-Dependent Effect | Activity (HEK293T): inactive | ED50 (Mus musculus [9]): 0.11 mg/kg

Clc1cccc2c1OCCC2c1c[nH]cn1 (stereo not drawn)
EC50 [10]: 35.8 nM | EC50 [1]: 2.36 nM | Selectivity Index [11]: 10 | EC50 [12]: 24.1 nM | Selectivity Index [13]: 15 | Selectivity Index [14]: 1.7 | EC50 [15]: 4.05 nM

Cc1cccc2c1OCCC2c1c[nH]cn1 (stereo not drawn)
EC50 [10]: > 5000 nM | EC50 [1]: 2.09 nM | Selectivity Index [11]: 22 | EC50 [12]: 45.8 nM | Selectivity Index [13]: > 2000 | half-life [16]: 36.8 min | microsomal CLint [17]: 37.7 µL/min/mg | Selectivity Index [14]: 1.2 | EC50 [15]: 2.42 nM

Cc1[nH]cnc1C1=CCOc2c(Cl)cccc21
EC50 [1]: > 5000 nM

Cc1cccc2c1OCC=C2c1nc[nH]c1C
EC50 [1]: > 5000 nM

C1=C(c2ccc3c(c2)CC3)CNCC1
Ki [5]: 60.3 nM
